Assay results published in US5550128A, “Enantiomers of gamma methylene 10-deaza aminopterin and process for preparing the same” (priority 1994, dated 1996).
pIC50: −log10 of the molar value.

Assays:
[1] = target: T1, Recombinant Human Dihydrofolate Reductase (Homo sapiens, UniProt P00374); assay: Inhibition of recombinant human dihydrofolate reductase, spectrophotometric enzyme assay; type: biochemical
T1 sequence (P00374 1-187): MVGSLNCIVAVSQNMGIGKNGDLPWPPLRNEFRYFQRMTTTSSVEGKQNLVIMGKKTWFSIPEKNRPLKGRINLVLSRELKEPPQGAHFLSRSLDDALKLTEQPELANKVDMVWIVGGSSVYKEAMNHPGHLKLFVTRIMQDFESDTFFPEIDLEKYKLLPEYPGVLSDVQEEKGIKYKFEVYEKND
Procedure: Enzyme assay was performed spectrophotometrically in a solution containin
50 μM dihydrofolate, 80 μM NADPH, 0.05 M Tris HCl. 0.01 M
2mercaptoethanol and 0.001 M EDTA at pH 7.4 at 30°. The reaction
Pure human recombinant enzyme was used.

[2] = test system: transport of radiolabeled folinic acid to H35 hepatoma cells; assay: Inhibition of transport of radiolabeled folinic acid to H35 hepatoma cells; type: cell-based
Procedure: (§1) Independent, further evidences to the identity of L-MDAM as the biologically active enantiomer of the racemic mixture of D,L-MDAM (previously described as MDAM; Ref, U.S. Pat. No. 4,996,207) was obtained by the following data. […] The cytotoxicity of L-MDAM versus D,L-MDAM was also compared. […] The l50 value for growth inhibition (Gl50) was 39 nM for D,L-MDAM. […] Taken together, these unexpected and novel results establish that the biologically active compound present in the racemic mixture of MDAM is the L-enantiomer described in claim number 1.

H35 hepatoma cells = assay: Growth inhibition of H35 hepatoma cells in culture; type: cell-based
Procedure: as §1

786-O (renal cancer) = assay: Human Disease Oriented in vitro Antitumor Screen; type: cell-based; details: 786-0, 786-O (Table 5), read-out: Gl50 (the source's name)
Procedure: (§2) Further, by analogy to methotrexate (rheumatrex) L-MDAM should be useful in the treatment of autoimmune diseases such as rheumatoid arthritis and inflammatory diseases such as asthma.
(§3) A 48 h continuous drug exposure protocol was used combined with an SR13
(§4) protein assay to estimate cell growth or viability.

ACHN (renal cancer) = assay: Human Disease Oriented in vitro Antitumor Screen; type: cell-based; details: ACHN (Table 5), read-out: Gl50 (the source's name)
Procedure: as §2, §3, §4

CCRF-CEM (leukemia) = assay: Human Disease Oriented in vitro Antitumor Screen; type: cell-based; details: CCRF-CEM (Table 5), read-out: Gl50 (the source's name)
Procedure: as §2, §3, §4

HCT-116 (colon cancer) = assay: Human Disease Oriented in vitro Antitumor Screen; type: cell-based; details: HCT-116 (Table 5), read-out: Gl50 (the source's name)
Procedure: as §2, §3, §4

HL-60 (TB) (leukemia) = assay: Human Disease Oriented in vitro Antitumor Screen; type: cell-based; details: HL-60 TB (Table 5), read-out: Gl50 (the source's name)
Procedure: as §2, §3, §4

HT-29 (colon cancer) = assay: Human Disease Oriented in vitro Antitumor Screen; type: cell-based; details: HT-29 (Table 5), read-out: Gl50 (the source's name)
Procedure: as §2, §3, §4

LOX IM VI (melanoma) = assay: Human Disease Oriented in vitro Antitumor Screen; type: cell-based; details: LOX IMVI, LOX MI VI (Table 5), read-out: Gl50 (the source's name)
Procedure: as §2, §3, §4

MOLT-4 (leukemia) = assay: Human Disease Oriented in vitro Antitumor Screen; type: cell-based; details: MOLT-4 (Table 5), read-out: Gl50 (the source's name)
Procedure: as §2, §3, §4

OVCAR-8 (ovarian cancer) = assay: Human Disease Oriented in vitro Antitumor Screen; type: cell-based; details: OVCAR-8 (Table 5), read-out: Gl50 (the source's name)
Procedure: as §2, §3, §4

SF-268 = assay: Human Disease Oriented in vitro Antitumor Screen; type: cell-based; details: SF-268 (Table 5), read-out: Gl50 (the source's name)
Procedure: as §2, §3, §4

SF-295 = assay: Human Disease Oriented in vitro Antitumor Screen; type: cell-based; details: SF-295 (Table 5), read-out: Gl50 (the source's name)
Procedure: as §2, §3, §4

SF-539 = assay: Human Disease Oriented in vitro Antitumor Screen; type: cell-based; details: SF-539 (Table 5), read-out: Gl50 (the source's name)
Procedure: as §2, §3, §4

SR (leukemia) = assay: Human Disease Oriented in vitro Antitumor Screen; type: cell-based; details: SR (Table 5), read-out: Gl50 (the source's name)
Procedure: as §2, §3, §4

SW-620 (colon cancer) = assay: Human Disease Oriented in vitro Antitumor Screen; type: cell-based; details: SW-620 (Table 5), read-out: Gl50 (the source's name)
Procedure: as §2, §3, §4

DU 145 (prostate cancer) = assay: Human Disease Oriented in vitro Antitumor Screen; type: cell-based; details: DU 145 (Table 5), read-out: Gl50 (the source's name)
Excerpt: (§5) It is also active against the adriamycin resistant MCF-7 human breast cancer cells (Gl50 -=74×10^-9).
(§6) Human Disease Oriented in vitro Antitumor Screen

HCT-15 (colon cancer) = assay: Human Disease Oriented in vitro Antitumor Screen; type: cell-based; details: HCT-15 (Table 5), read-out: Gl50 (the source's name)
Excerpt: as §5, §6

[3] = test system: HOP-62 (non-small cell lung cancer); assay: Human Disease Oriented in vitro Antitumor Screen; type: cell-based; details: HOP-62 (Table 5), read-out: Gl50 (the source's name)
Excerpt: as §5, §6

IGROVI (ovarian cancer) = assay: Human Disease Oriented in vitro Antitumor Screen; type: cell-based; details: IGROVI (Table 5), read-out: Gl50 (the source's name)
Excerpt: as §5, §6

M14 (melanoma) = assay: Human Disease Oriented in vitro Antitumor Screen; type: cell-based; details: M14 (Table 5), read-out: Gl50 (the source's name)
Excerpt: as §5, §6

MCF-7 (breast cancer) = assay: Human Disease Oriented in vitro Antitumor Screen; type: cell-based; details: MCF7, MCF-7 (Table 5), read-out: Gl50 (the source's name)
Excerpt: as §5, §6

[4] = test system: MDA-MB-231/ATCC (breast cancer); assay: Human Disease Oriented in vitro Antitumor Screen; type: cell-based; details: MDA-MB-231/ATCC (Table 5), read-out: Gl50 (the source's name)
Excerpt: as §5, §6

MDA-N (breast cancer) = assay: Human Disease Oriented in vitro Antitumor Screen; type: cell-based; details: MDA-N (Table 5), read-out: Gl50 (the source's name)
Excerpt: as §5, §6

[5] = test system: NCI-H460 (non-small cell lung cancer); assay: Human Disease Oriented in vitro Antitumor Screen; type: cell-based; details: NCI-H460 (Table 5), read-out: Gl50 (the source's name)
Excerpt: as §5, §6

OVCAR-5 (ovarian cancer) = assay: Human Disease Oriented in vitro Antitumor Screen; type: cell-based; details: OVCAR-5 (Table 5), read-out: Gl50 (the source's name)
Excerpt: as §5, §6

RPMI-8226 (leukemia) = assay: Human Disease Oriented in vitro Antitumor Screen; type: cell-based; details: RPMI-8226 (Table 5), read-out: Gl50 (the source's name)
Excerpt: as §5, §6

SN-12C (renal cancer) = assay: Human Disease Oriented in vitro Antitumor Screen; type: cell-based; details: SN12C, SN-12C (Table 5), read-out: Gl50 (the source's name)
Excerpt: as §5, §6

TK-10 (renal cancer) = assay: Human Disease Oriented in vitro Antitumor Screen; type: cell-based; details: TK-10 (Table 5), read-out: Gl50 (the source's name)
Excerpt: as §5, §6

U-251 (CNS cancer) = assay: Human Disease Oriented in vitro Antitumor Screen; type: cell-based; details: U-251 (Table 5), read-out: Gl50 (the source's name)
Excerpt: as §5, §6

ZIACC-62 (melanoma) = assay: Human Disease Oriented in vitro Antitumor Screen; type: cell-based; details: ZIACC-62 (Table 5), read-out: Gl50 (the source's name)
Excerpt: as §5, §6

[6] = test system: adriamycin resistant MCF-7 human breast cancer cells (MCF-7/ADR-RBS); assay: Human Disease Oriented in vitro Antitumor Screen, adriamycin resistant cells; type: cell-based; details: MCF7, read-out: Gl50 (the source's name)
Excerpt: as §5, §6

[7] = test system: human tumor cell lines in culture; assay: Human Tumor Disease Oriented in vitro screen, panel as a whole; type: cell-based; details: relative to methotrexate, or enantiomer comparison
Procedure: as §2, §3, §4

C=C(C[C@H](NC(=O)c1ccc(CCc2cnc3nc(N)nc(N)c3n2)cc1)C(=O)O)C(=O)O [L-MDAM, 4-amino-4-deoxy-10-deazapteroyl-γ-methylene-L-glutamic acid]
pIC50 ([1]; 50 μM dihydrofolate, 80 μM NADPH, pH 7.4, 30°): 7.66
IC50 Compound/IC50 MTX ([1]; ratio to MTX): 1.29
DHFR inhibitory activity (comparison in words) ([1]; relative to MTX or D,L-MDAM): exactly twice as active as D,L-MDAM
pIC50 ([2]; H35 hepatoma cells, read-out: l50 value, inhibition of transport of radiolabeled folinic acid): 5.64
reduction in l50 value (transport) versus D,L-MDAM ([2]; L-MDAM versus D,L-MDAM): approximately one-half
cytotoxicity versus D,L-MDAM (H35 hepatoma cells; H35 hepatoma cells): Dramatic and unexpected potentiation of activity
pIC50 (H35 hepatoma cells; H35 hepatoma cells in culture, identical conditions, read-out: l50 value for growth inhibition (Gl50)): 8.10
pIC50 (786-O (renal cancer)): > 8.00
pIC50 (ACHN (renal cancer)): > 8.00
pIC50 (CCRF-CEM (leukemia)): > 8.00
pIC50 (HCT-116 (colon cancer)): > 8.00
pIC50 (HL-60 (TB) (leukemia)): > 8.00
pIC50 (HT-29 (colon cancer)): > 8.00
pIC50 (LOX IM VI (melanoma)): > 8.00
pIC50 (MOLT-4 (leukemia)): > 8.00
pIC50 (OVCAR-8 (ovarian cancer)): > 8.00
pIC50 (SF-268): > 8.00
pIC50 (SF-295): > 8.00
pIC50 (SF-539): > 8.00
pIC50 (SR (leukemia)): > 8.00
pIC50 (SW-620 (colon cancer)): > 8.00
pIC50 (DU 145 (prostate cancer)): > 8.00
pIC50 (HCT-15 (colon cancer)): > 8.00
pIC50 [3]: > 8.00
pIC50 (IGROVI (ovarian cancer)): > 8.00
pIC50 (M14 (melanoma)): > 8.00
pIC50 (MCF-7 (breast cancer)): > 8.00
pIC50 [4]: > 8.00
pIC50 (MDA-N (breast cancer)): > 8.00
pIC50 [5]: > 8.00
pIC50 (OVCAR-5 (ovarian cancer)): > 8.00
pIC50 (RPMI-8226 (leukemia)): > 8.00
pIC50 (SN-12C (renal cancer)): > 8.00
pIC50 (TK-10 (renal cancer)): > 8.00
pIC50 (U-251 (CNS cancer)): > 8.00
pIC50 (ZIACC-62 (melanoma)): > 8.00
pIC50 [6]: 7.13
activity/potency in inhibiting growth of human tumor cell lines (in words) [7]: biologically active enantiomer of D,L-MDAM
